Biological target: human recombinant P2X7 receptor (Homo sapiens (Human), UniProt Q99572)
Assay: YO-PRO assay: P2X7 receptor antagonistic activity
Format: cell-based
Settings: HEK cells expressing human P2X7
Experimental: The P2X7 receptor antagonistic activity of the compounds of formula (I) is determined in accordance with the following experimental method.
Cell Line Generation and YO-PRO Assay
Cell line generation was performed in general according to established molecular cloning protocols. Specifically, RNA was extracted from human whole blood using the Qiagen RNeasy kit (Qiagen, CH) according to the manufacturer's instructions. Subsequently cDNA was made (Superscript II, Invitrogen AG, CH) and the human P2X7 gene (genbank ref. BC011913) was amplified with the following primers: […] and […]. The amplified sequence was subsequently ligated into a pcDNA3.1 (+) NotI, NheI digested plasmid. […] Following a 24 h exposure to DNA, cells were trypsinized and re-seeded at low density in the presence of 250 μg Geneticin. Geneticin resistant cells were then selected during two consecutive rounds of cloning by serial limiting dilution with visual inspection. Individual clones were screened for P2X7 expression by applying ATP and recording the resultant uptake of YO-PRO1. Specific cell clones were chosen based on RNA and protein expression. HEK cells stably expressing P2X7 were used to screen drugs using the YO-PRO1 assay. Cells were grown to confluency in adherent culture at 37° C. in a humidified 5% CO2 incubator (split 1/5 every 3-4 days with DMEM, 10% FCS, 1% Penicillin/Streptomycin, 250 μg/ml Geneticin). Adherent cells were detached by incubation with Trypsine (1 ml per 165 cm^2 dish) for 2 minutes, then washed off with 10 ml PBS (without Mg^2+ and Ca^2+), and resuspended in DMEM, 10% FCS, 1% Penicillin/Streptomycin, no Geneticin. […] During this time period, four time points were taken. Each time point comprised the average of several measurements made within a few seconds. […] The FLIPR tetra was equipped with Molecular Devices Screen Works system control software to define and run experimental protocols. […] For IC50 measurements the maximum intensity is plotted against the concentration of compound to determine IC50 values.

human recombinant P2X7 receptor, sequence (Q99572 whole entry): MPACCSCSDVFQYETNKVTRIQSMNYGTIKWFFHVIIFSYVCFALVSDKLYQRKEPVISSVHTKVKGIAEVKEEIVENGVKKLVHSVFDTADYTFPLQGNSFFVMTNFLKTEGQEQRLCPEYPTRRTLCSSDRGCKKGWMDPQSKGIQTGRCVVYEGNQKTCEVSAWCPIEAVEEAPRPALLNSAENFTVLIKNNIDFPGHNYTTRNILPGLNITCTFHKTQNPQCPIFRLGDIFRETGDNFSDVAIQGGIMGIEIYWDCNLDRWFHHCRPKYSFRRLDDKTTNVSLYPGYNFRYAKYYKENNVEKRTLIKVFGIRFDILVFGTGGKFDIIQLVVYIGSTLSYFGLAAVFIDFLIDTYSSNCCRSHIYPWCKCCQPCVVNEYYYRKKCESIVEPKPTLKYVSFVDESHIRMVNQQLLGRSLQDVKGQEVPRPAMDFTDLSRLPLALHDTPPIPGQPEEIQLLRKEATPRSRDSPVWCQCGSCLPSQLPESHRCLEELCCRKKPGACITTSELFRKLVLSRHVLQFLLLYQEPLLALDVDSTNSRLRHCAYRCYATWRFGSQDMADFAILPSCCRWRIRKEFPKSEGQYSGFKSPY

SMILES	IC50 [nM]
O=C(NC1CCOc2ncccc21)C1(c2ccc(F)cc2Cl)CCCC1 (racemic) [Example 59, rac-1-(2-Chloro-4-fluoro-phenyl)-cyclopentanecarboxylic acid (3,4-dihydro-2H-pyrano[2,3-b]pyridin-4-yl)-amide]	390
O=C(Cc1cccnc1Cl)NC1CCOc2ncccc21 (racemic) [Example 60, rac-2-(2-Chloro-pyridin-3-yl)-N-(3,4-dihydro-2H-pyrano[2,3-b]pyridin-4-yl)-acetamide]	780
Cc1cc(CC(=O)NC2CCOc3ncccc32)on1 (racemic) [Example 62, rac-N-(3,4-Dihydro-2H-pyrano[2,3-b]pyridin-4-yl)-2-(3-methyl-isoxazol-5-yl)-acetamide]	2080
Cc1ccnn1CC(=O)NC1CCOc2ncccc21 (racemic) [Example 63, rac-N-(3,4-Dihydro-2H-pyrano[2,3-b]pyridin-4-yl)-2-(5-methyl-pyrazol-1-yl)-acetamide]	> 5720
O=C(Cc1c(F)cc(Cl)cc1Cl)NC1CCOc2ncccc21 (racemic) [Example 70, rac-2-(2,4-Dichloro-6-fluoro-phenyl)-N-(3,4-dihydro-2H-pyrano[2,3-b]pyridin-4-yl)-acetamide]	386
O=C(Cc1c(C(F)(F)F)ccc(Cl)c1Cl)NC1COc2ncccc21 (racemic) [Example 71, rac-2-(2,3-Dichloro-6-trifluoromethyl-phenyl)-N-(2,3-dihydro-furo[2,3-b]pyridin-3-yl)-acetamide]	3230
O=C(Cc1c(Cl)ccc(Cl)c1F)NC1COc2ncccc21 (racemic) [Example 77, rac-2-(3,6-Dichloro-2-fluoro-phenyl)-N-(2,3-dihydro-furo[2,3-b]pyridin-3-yl)-acetamide]	2480
NC(=O)c1cccc(CC(=O)NC2COc3ncccc32)c1Cl (racemic) [Example 80, rac-2-Chloro-3-[(2,3-dihydro-furo[2,3-b]pyridin-3-ylcarbamoyl)-methyl]-benzamide]	1240
O=C(Cc1cccc(C(F)(F)F)c1Cl)NC1COc2cnccc21 (racemic) [Example 87, rac-2-(2-Chloro-3-trifluoromethyl-phenyl)-N-(2,3-dihydro-furo[2,3-c]pyridin-3-yl)-acetamide]	4.6
O=C(Cc1ccc(C(F)(F)F)cc1Cl)NC1COc2ncccc21 (racemic) [Example 88, rac-2-(2-Chloro-4-trifluoromethyl-phenyl)-N-(2,3-dihydro-furo[2,3-b]pyridin-3-yl)-acetamide]	72
Cc1cc(Cl)cc(Cl)c1CC(=O)NC1COc2cnccc21 (racemic) [Example 89, rac-2-(2,4-Dichloro-6-methyl-phenyl)-N-(2,3-dihydro-furo[2,3-c]pyridin-3-yl)-acetamide]	3.2
O=C(Cc1cccc(Cl)c1C(F)(F)F)NC1COc2ncccc21 (racemic) [Example 97, rac-2-(3-Chloro-2-trifluoromethyl-phenyl)-N-(2,3-dihydro-furo[2,3-b]pyridin-3-yl)-acetamide]	15
Cc1nccc2c1OCC2NC(=O)Cc1ccc(Cl)cc1Cl (racemic) [Example 100, rac-2-(2,4-Dichloro-phenyl)-N-(7-methyl-2,3-dihydro-furo[2,3-c]pyridin-3-yl)-acetamide]	52
O=C(Cc1ccc(Cl)cc1Cl)NC1COc2c1ccnc2C1CC1 (racemic) [Example 104, rac-N-(7-Cyclopropyl-2,3-dihydro-furo[2,3-c]pyridin-3-yl)-2-(2,4-dichloro-phenyl)-acetamide]	71
COc1nccc2c1OCC2NC(=O)Cc1ccc(Cl)cc1Cl (racemic) [Example 105, rac-2-(2,4-Dichloro-phenyl)-N-(7-methoxy-2,3-dihydro-furo[2,3-c]pyridin-3-yl)-acetamide]	248
N#Cc1c(Cl)ccc(CC(=O)NC2COc3ncccc32)c1Cl (racemic) [Example 112, rac-2-(2,4-Dichloro-3-cyano-phenyl)-N-(2,3-dihydro-furo[2,3-b]pyridin-3-yl)-acetamide]	219

Continued by falling IC50, values first:

IC50 [nM]	SMILES
3010	O=C(CCc1ccc(Cl)cc1Cl)NC1CCOc2ncccc21 (racemic) [Example 65, rac-3-(2,4-Dichloro-phenyl)-N-(3,4-dihydro-2H-pyrano[2,3-b]pyridin-4-yl)-propionamide]
2030	O=C(CCCc1ccc(F)cc1)NC1COc2ncccc21 (racemic) [Example 82, rac-N-(2,3-Dihydro-furo[2,3-b]pyridin-3-yl)-4-(4-fluoro-phenyl)-butyramide]
1830	O=C(Cc1c(F)cccc1C(F)(F)F)NC1COc2ncccc21 (racemic) [Example 68, rac-N-(2,3-Dihydro-furo[2,3-b]pyridin-3-yl)-2-(2-fluoro-6-trifluoromethyl-phenyl)-acetamide]
1020	O=C(Cc1c(Cl)ccc(C(F)(F)F)c1Cl)NC1COc2ncccc21 (racemic) [Example 72, rac-2-(2,6-Dichloro-3-trifluoromethyl-phenyl)-N-(2,3-dihydro-furo[2,3-b]pyridin-3-yl)-acetamide]
814	Cc1ccc(OCC(=O)NC2CCOc3ncccc32)c(C)n1 (racemic) [Example 61, rac-N-(3,4-Dihydro-2H-pyrano[2,3-b]pyridin-4-yl)-2-(2,6-dimethyl-pyridin-3-yloxy)-acetamide]
665	O=C(Cc1c(F)ccc(F)c1Cl)NC1COc2ncccc21 (racemic) [Example 78, rac-2-(2-Chloro-3,6-difluoro-phenyl)-N-(2,3-dihydro-furo[2,3-b]pyridin-3-yl)-acetamide]
416	CC(=O)c1cccc(CC(=O)NC2COc3ncccc32)c1Cl (racemic) [Example 111, rac-2-(3-Acetyl-2-chloro-phenyl)-N-(2,3-dihydro-furo[2,3-b]pyridin-3-yl)-acetamide]
294	O=C(NC1CCOc2ncccc21)C1(c2ccc(Cl)cc2Cl)CC1 (racemic) [Example 58, rac-1-(2,4-Dichloro-phenyl)-cyclopropanecarboxylic acid (3,4-dihydro-2H-pyrano[2,3-b]pyridin-4-yl)-amide]
210	O=C(Cc1c(F)ccc(Cl)c1Cl)NC1COc2ncccc21 (racemic) [Example 67, rac-2-(2,3-Dichloro-6-fluoro-phenyl)-N-(2,3-dihydro-furo[2,3-b]pyridin-3-yl)-acetamide]
123	N#Cc1ccc(CC(=O)NC2COc3ncccc32)c(Cl)c1 (racemic) [Example 96, rac-2-(2-Chloro-4-cyano-phenyl)-N-(2,3-dihydro-furo[2,3-b]pyridin-3-yl)-acetamide]
92	O=C(Cc1cccc(C(F)(F)F)c1F)NC1COc2ncccc21 (racemic) [Example 90, rac-N-(2,3-Dihydro-furo[2,3-b]pyridin-3-yl)-2-(2-fluoro-3-trifluoromethyl-phenyl)-acetamide]
90	O=C(Cc1c(F)cc(Cl)cc1Cl)NC1COc2ncccc21 (racemic) [Example 76, rac-2-(2,4-Dichloro-6-fluoro-phenyl)-N-(2,3-dihydro-furo[2,3-b]pyridin-3-yl)-acetamide]
71	O=C(Cc1cccc(OC(F)(F)F)c1Cl)NC1COc2ncccc21 (racemic) [Example 108, rac-2-(2-Chloro-3-trifluoromethoxy-phenyl)-N-(2,3-dihydro-furo[2,3-b]pyridin-3-yl)-acetamide]
52	O=C(Cc1ccc(Cl)cc1Cl)NC1COc2c1ccnc2Cl (racemic) [Example 106, rac-N-(7-Chloro-2,3-dihydro-furo[2,3-c]pyridin-3-yl)-2-(2,4-dichloro-phenyl)-acetamide]
31	N#Cc1c(F)ccc(CC(=O)NC2COc3ncccc32)c1Cl (racemic) [Example 107, rac-2-(2-Chloro-3-cyano-4-fluoro-phenyl)-N-(2,3-dihydro-furo[2,3-b]pyridin-3-yl)-acetamide]
28	N#Cc1cccc(CC(=O)NC2COc3ncccc32)c1C(F)(F)F (racemic) [Example 113, rac-2-(3-Cyano-2-trifluoromethyl-phenyl)-N-(2,3-dihydro-furo[2,3-b]pyridin-3-yl)-acetamide]
22	N#Cc1cccc(CC(=O)NC2COc3ncccc32)c1Cl (racemic) [Example 75, rac-2-(2-Chloro-3-cyano-phenyl)-N-(2,3-dihydro-furo[2,3-b]pyridin-3-yl)-acetamide]
16	O=C(Cc1c(Cl)cc(Cl)cc1CO)NC1COc2ncccc21 (racemic) [Example 103, rac-2-(2,4-Dichloro-6-hydroxymethyl-phenyl)-N-(2,3-dihydro-furo[2,3-b]pyridin-3-yl)-acetamide]
6.7	Cc1cc(Cl)cc(Cl)c1CC(=O)NC1COc2nnccc21 (racemic) [Example 110, rac-2-(2,4-Dichloro-6-methyl-phenyl)-N-(5,6-dihydro-furo[2,3-c]pyridazin-5-yl)-acetamide]

From patent US9221832B2, “Heterocyclic amide derivatives as P2X7 receptor antagonists” (ACTELION PHARMACEUTICALS LTD., priority 2011, dated 2015)
